Consider nine compounds from patent US11596150B2, “Long chain glycolipids useful to avoid perishing or microbial contamination of materials” (IMD NATURAL SOLUTIONS GMBH, priority 2011, dated 2023).

In brackets after ≈: the same amount, converted by molar mass. Read-outs that look alike come from different tables or passages of the source.

Test [1] deals with Bacillus subtilis (ATCC6633). Put plainly: MIC determination in microtiter plates (non-pathogenic microorganisms). The following applies: 48 h, read-out: MIC values after 48 h. The test is classed as cell-based.
For test [2], the system named is Corynebacterium variabile (DSM20132). Described as above. The test is classed as cell-based. The following applies: 48 h, read-out: MIC values after 48 h.
Test [3] relates to Lactobacillus plantarum (DSM 12028). The description is as above. The test is classed as cell-based. The following applies: Lactiplantibacillus plantarum; Lactobacillus plantarum (DSM12028); 48 h; read-out: MIC values after 48 h.
Test [4] deals with Aspergillus niger (ATCC 16404). The description is as above. The test is classed as cell-based. Particulars: Aspergillus niger (ATCC16404); 48 h; read-out: MIC values after 48 h.
Test [5] concerns Byssochlamys fulva (DSM62097). The test is described as above. The test is classed as cell-based. Particulars: Paecilomyces fulvus, 48 h, read-out: MIC values after 48 h.
Test [6] concerns Mucor plumbeus (MUCL49355). Described as above. The test is classed as cell-based.
Test [7] deals with Dekkera bruxellensis (DSM70726). The description is as above. The following applies: Brettanomyces bruxellensis, 48 h, read-out: MIC values after 48 h. The test is classed as cell-based.
For test [8], the system named is Dekkera naardenensis (DSM70743). The description is as above. The test is classed as cell-based. The following applies: Brettanomyces naardenensis, 48 h, read-out: MIC values after 48 h.
Test [9] concerns Saccharomyces cerevisiae (HT10). Described as above. The test is classed as cell-based. The following applies: 48 h, read-out: MIC values after 48 h.
The test system of test [10] is Zygosaccharomyces bailii (DSM70492). Described as above. The following applies: 48 h, read-out: MIC values after 48 h. The test is classed as cell-based.
The test system of test [11] is Zygosaccharomyces bisporus (DSM70415). The test is described as above. The test is classed as cell-based. The following applies: 48 h, read-out: MIC values after 48 h.
In test [12] the test system is Zygosaccharomyces florentinus (DSM70506). The test is described as above. The test is classed as cell-based. The following applies: Zygotorulaspora florentina, 48 h, read-out: MIC values after 48 h.
The subject of test [13] is Zygosaccharomyces rouxii (NCYC381). The test is described as above. The test is classed as cell-based. The following applies: 48 h, read-out: MIC values after 48 h.
For test [14], the system named is Staphylococcus aureus (ATCC 6538P). Description: microbe, parasite or virus in culture. The test is classed as cell-based. The following applies: ATCC6538P, Mueller-Hinton Broth, 1% DMSO, 20 hours at 36° C., read-out: MIC S. aureus.
Test [15] concerns Clostridium perfringens (ATCC 13124). Description: microbe, parasite or virus in culture. The test is classed as cell-based. Particulars: ATCC13124, 48 h.
The subject of test [16] is Aspergillus fumigatus (ATCC 1028). Description: microbe, parasite or virus in culture. The test is classed as cell-based.
Test [17] has as its system Propionibacterium acnes (ATCC6919). Put plainly: MIC after 48 h (Example 9). The test is classed as cell-based. The following applies: Cutibacterium acnes.
Test [18] relates to Talaromyces luteus (CBS348.51). Put plainly: MIC after 48 h (Example 9). The test is classed as cell-based. Particulars: Ascospirella lutea.
Test [19] deals with Pyricularia oryzae (DSM62938). Description: microbe, parasite or virus in culture. The test is classed as cell-based. The following applies: DSM62938, 48 h, read-out: MIC values after 48 h.
For a further test, the system named is Candida albicans. Put plainly: MIC / growth inhibition after 48 h (Example 9). The following applies: ATCC10231, 48 h, read-out: MIC values after 48 h.
Setting [20] is: M. plumbeus (MUCL49355), SDB medium, day not given (Table 19).
The mark [21] stands for this setting: M. plumbeus (MUCL49355), SDB medium, day not printed (first line of Table 19).
Where [22] appears, read: Mucor plumbeus (MUCL49355), 48 h, read-out: MIC values after 48 h.
[23] abbreviates: M. plumbeus (MUCL49355), SDB medium, day 2.
Setting [24] is: M. plumbeus (MUCL49355), SDB medium, day 7.
The mark [25] stands for this setting: M. plumbeus (MUCL49355), SDB medium, day 16.
Setting [26] is: M. plumbeus (MUCL49355), SDB medium, day 28.

As for `CCCCC(CCCC(O)C(O)CCCCCCCCCCCCCCC(O)C(=O)O)OC1OCC(O)C(O)C1OC1OCC(OC(C)=O)C(O)C1OC1OC(COC(=O)CC(C)C)C(O)C(O)C1O` (stereo not shown) [[1], 2,17,18-trihydroxy-hexacosanoic acid 22-O-[6-isovaleroyl-hexapyranosyl-(1→2)-5-acetyl-pentapyranosyl-(1→2)-penta-pyranosid]-], the MIC in test [1] was 3.1 µg/mL (≈ 3.06 µM); in test [2], 1.6 µg/mL (≈ 1.58 µM); in [3], 25 µg/mL (≈ 24.7 µM); in test [4], 3.1 µg/mL (≈ 3.06 µM); in [5], 3.1 µg/mL (≈ 3.06 µM); in test [6] (setting [20]) it was 50. Further, the MIC in [6] (setting [21]) was 25; in test [6] (setting [22]) it was 6.3 µg/mL (≈ 6.22 µM); in test [7], 6.3 µg/mL (≈ 6.22 µM); in test [8] it was 6.3 µg/mL (≈ 6.22 µM); in test [9] it was 6.3 µg/mL (≈ 6.22 µM); in test [10] it was 6.3 µg/mL (≈ 6.22 µM). The MIC in [11] was determined as 12.5 µg/mL (≈ 12.3 µM); in [12], 6.3 µg/mL (≈ 6.22 µM); in test [13], 6.3 µg/mL (≈ 6.22 µM); in test [14], 200 µg/mL (≈ 197 µM); in test [15] (read-out: MIC C. perfringens), 60 µg/mL (≈ 59.2 µM); in [15] (read-out: MIC values after 48 h) it was 60 µg/mL (≈ 59.2 µM). Further, the MIC in test [16] (Aspergillus fumigatus (ATCC1028), 48 h, read-out: MIC values after 48 h) came out at 20 µg/mL (≈ 19.7 µM); in test [16] (Aspergillus fumigatus, ATCC1028, 72 h, Potato Dextrose Broth, 1% DMSO, 3 days at 28° C., read-out: MIC A. fumigatus), 20 µg/mL (≈ 19.7 µM); in test [17], 100 µg/mL (≈ 98.7 µM); in test [18], 12.5 µg/mL (≈ 12.3 µM); in test [19], 6 µg/mL (≈ 5.92 µM); in the test on Candida albicans it was 30 µg/mL (≈ 29.6 µM).
With `CCCCC(CCCC(O)C(O)CCCCCCCCCCCCCCC(O)C(=O)O)OC1OCC(O)C(O)C1OC1OCC(O)C(O)C1OC1OC(COC(C)=O)C(OC(C)=O)C(O)C1O` (stereo not shown) [[6], Glykenin IIIB or Glykenin IIIC], the MIC in [6] (setting [20]) and in test [6] (setting [21]) was 25 each time.
In the case of `CCCCCCC(CCCC(O)CCCCCCCCCCCCCC(O)C(=O)O)OC1OCC(O)C(O)C1OC1OCC(OC(C)=O)C(O)C1OC1OC(COC(C)=O)C(O)C(O)C1O` (stereo not shown) [[10], Antibiotic F 19848A], the MIC was determined as 50 in [6] (setting [20]) and 12.5 in [6] (setting [21]).
With `CCCCC(CCCC(O)C(O)CCCCCCCCCCCCCCC(O)C(=O)O)OC1OCC(O)C(O)C1OC1OCC(O)C(O)C1OC1OC(COC(=O)CC(C)C)C(OC(C)=O)C(O)C1O` (stereo not shown) [[13]], the MIC came out at 3.1 µg/mL (≈ 3.06 µM) in test [1]; 1.6 µg/mL (≈ 1.58 µM) in test [2]; 25 µg/mL (≈ 24.7 µM) in test [3]; 12.5 µg/mL (≈ 12.3 µM) in [4]; 3.1 µg/mL (≈ 3.06 µM) in test [5]; 25 in test [6] (setting [20]). In addition, the MIC amounted to 12.5 in test [6] (setting [21]); 12.5 µg/mL (≈ 12.3 µM) in test [6] (setting [22]); 6.3 µg/mL (≈ 6.22 µM) in test [7]; 12.5 µg/mL (≈ 12.3 µM) in test [8]; 12.5 µg/mL (≈ 12.3 µM) in test [9]; 6.3 µg/mL (≈ 6.22 µM) in [10]. In addition, the MIC in test [11] came out at 25 µg/mL (≈ 24.7 µM); in test [12] it was 12.5 µg/mL (≈ 12.3 µM); in test [13], 12.5 µg/mL (≈ 12.3 µM); in test [18] it was 25 µg/mL (≈ 24.7 µM); in test [19] it was 6 µg/mL (≈ 5.92 µM).
For the compound `CCCCC(CCCC(O)C(O)CCCCCCCCCCCCCCC(O)C(=O)O)OC1OCC(O)C(O)C1OC1OCC(OC(C)=O)C(O)C1OC1OC(CO)C(O)C(O)C1O` (stereo not shown) [[14]], the MIC is 1.6 µg/mL (≈ 1.72 µM) in test [1]; 1.6 µg/mL (≈ 1.72 µM) in [2]; 25 µg/mL (≈ 26.9 µM) in [3]; 50 µg/mL (≈ 53.8 µM) in test [4]; greater than 100 in [6] (setting [20]); 50 in [6] (setting [21]). Further, the MIC in [6] (setting [22]) amounted to 50 µg/mL (≈ 53.8 µM); in [7], 50 µg/mL (≈ 53.8 µM); in test [8] it was 25 µg/mL (≈ 26.9 µM); in test [9], 50 µg/mL (≈ 53.8 µM); in test [10], 25 µg/mL (≈ 26.9 µM); in test [11] it was 50 µg/mL (≈ 53.8 µM). The MIC in [12] was determined as 50 µg/mL (≈ 53.8 µM); in test [13], 25 µg/mL (≈ 26.9 µM); in test [18], 50 µg/mL (≈ 53.8 µM); in test [19], 25 µg/mL (≈ 26.9 µM).
For `CCCCC(CCCC(O)C(O)CCCCCCCCCCCCCCC(O)C(=O)O)OC1OCC(O)C(O)C1OC1OCC(O)C(O)C1OC1OC(CO)C(O)C(O)C1O` (stereo not shown) [[16], Glykenin DGC or Glykenin DGB], the MIC is 3.1 µg/mL (≈ 3.49 µM) in test [1]; 1.6 µg/mL (≈ 1.8 µM) in test [2]; 50 µg/mL (≈ 56.4 µM) in [3]; 25 µg/mL (≈ 28.2 µM) in [4]; 6.3 µg/mL (≈ 7.1 µM) in test [5]; greater than 100 in [6] (setting [20]). Further, the MIC in test [6] (setting [21]) is greater than 100; in test [6] (setting [22]), greater than 100 µg/mL; in test [7], greater than 100 µg/mL; in [8], 50 µg/mL (≈ 56.4 µM); in test [9], greater than 100 µg/mL; in test [10], 25 µg/mL (≈ 28.2 µM). Further, the MIC is greater than 100 µg/mL in test [11]; greater than 100 µg/mL in [12]; 100 µg/mL (≈ 113 µM) in test [13]; 50 µg/mL (≈ 56.4 µM) in [18]; 25 µg/mL (≈ 28.2 µM) in test [19].
For the compound `CCCCCCC(CCCC(O)CCCCCCCCCCCCCC(O)C(=O)O)OC1OCC(O)C(O)C1OC1OCC(OC(C)=O)C(O)C1OC1OC(COC(=O)CC(C)C)C(O)C(O)C1O` (stereo not shown) [[18]], the MIC is reported as greater than 100 in test [6] (setting [20]) and 25 in test [6] (setting [21]).
On to `O=C(O)c1ccccc1` [benzoic acid, reference compound], for which the MIC in [6] (setting [23]) is reported as 1000; in test [6] (setting [24]), 1000; in test [6] (setting [25]), greater than 1000; in test [6] (setting [26]), greater than 1000.
For the compound `C/C=C/C=C/C(=O)O` [sorbic acid, reference compound], the MIC in test [6] (setting [23]) is on record as 250; in test [6] (setting [24]), 500; in [6] (setting [25]), 1000; in test [6] (setting [26]) it was 1000.
